System: ASB XIV cells (pulmonary squamous cell carcinoma)
Assay: Effect of isomers and BLAS on in vivo tumour growth, ASB XIV tumours (Example 8)
Set-up: species or system Balb/c mice
Conditions: for Inhibition of the in vivo growth of the lung carcinoma ASB XIV, in words: 260 ng i.p. days 6, 7 and 14; for Tumour surface, overall values (Mean) / Tumour surface, overall values (Median) / Tumour volume, overall values (Mean) / Tumour volume, overall values (Median): 260 ng/mouse i.p. days 6, 7 and 14; for Differences in ASB XIV tumour growth rate vs. placebo, statistical significance p (Mann-Whitney U test): either in surface or volume, all days scored after the day 26th
Excerpt: This assay was made in order to compare the effect of each stereoisomer on in vivo tumour growth in mice with the effect of the mixture of all of them challenged with ASB XIV tumours. The stereoisomers assayed were the same as in example 7 above plus a mixture of all of them (BLAS). The equipment (when needed), reagents, dose, vehicle and route and volume of administration were the same as in example 7.
ASB XIV is a pulmonary squamous cell carcinoma originated in Balb/c mouse strain, and therefore syngeneic in mice with Balb/c genetic background.
ASB XIV cells (CLS, Eppelheim, Germany) were maintained in vitro by serial passages every 3-4 days. Cultures were performed with RPMI medium medium (RPMI, 10% foetal calf serum, 2 mM L-glutamine, non essential aminoacids, 1 mM sodium pyruvate, 20 mM HEPES, 80 μg/mL gentamycin; all of them were purchased from Sigma, St. Louis, Mo., USA) by seeding 5×10^6 cells onto 75 cm^2 culture flasks. Tumour cells collected from 48 hour cultures upon trypsinization (Sigma, St. Louis, Mo., USA) were used as source of ASB XIV cells in the present example.
• BLAS (mixture of isomers 1, 2, 3 and 4) at a concentration of 65 μg/mL in sterile physiological saline. Isomer 1 (9b) at a concentration of 65 μg/mL in sterile physiological saline. • Isomer 2 (9c) at a concentration of 65 μg/mL in sterile physiological saline. • Isomer 3 (9a) at a concentration of 65 μg/mL in sterile physiological saline. • Isomer 4 (9d) at a concentration of 65 μg/mL in sterile physiological saline. Placebo
Tumours were established by subcutaneous inoculation in the right hind flank. Mice (Balb/c) were inoculated with 0.2 mL containing 2×10^5 viable ASB XIV cells. The day of subcutaneous inoculation will be considered Day 0 of the test.
Mice were observed daily and the tumour size recorded twice a week. This was carried out by measuring two perpendicular diameters (d1/d2) with a calliper. These measures were used to obtain both tumour surface and volume: Tumour surface=d1×d2(mm^2) Tumour volume=d1×d2^2×½(mm^3)
Results were expressed as single values and/or as the mean±SD or median from each experimental group.
A case-control study was performed with treated and control mice in order to determine whether differences between BLAS or each diferent stereoisomer and administration of placebo were present. […] The U-test of Mann Withney was chosen for being one of the better known non-parametrical tests, anyway, results for this test are equivalent both to those of Wilcoxon's sum of ranges and Kruskal-Wallis two-groups test.
Due to the high dispersion of data, outlayers (animals beyond percentile 10 or above percentile 90 for tumour surface at day 33) were excluded of the study.

[1] = day 12 after tumour inoculation
[2] = day 15 after tumour inoculation
[3] = day 19 after tumour inoculation
[4] = day 22 after tumour inoculation
[5] = day 26 after tumour inoculation
[6] = day 29 after tumour inoculation
[7] = day 33 after tumour inoculation

SMILES | Tumour surface, overall values (Mean) (day 0 after tumour inoculation) | Tumour surface, overall values (Median) (day 0 after tumour inoculation) | Tumour volume, overall values (Mean) (day 0 after tumour inoculation) | Tumour volume, overall values (Median) (day 0 after tumour inoculation) | Tumour surface, overall values (Mean) (day 8 after tumour inoculation) | Tumour surface, overall values (Median) (day 8 after tumour inoculation) | Tumour volume, overall values (Mean) (day 8 after tumour inoculation) | Tumour volume, overall values (Median) (day 8 after tumour inoculation) | Tumour surface, overall values (Mean) [1] | Tumour surface, overall values (Median) [1] | Tumour volume, overall values (Mean) [1] | Tumour volume, overall values (Median) [1] | Tumour surface, overall values (Mean) [2] | Tumour surface, overall values (Median) [2] | Tumour volume, overall values (Mean) [2] | Tumour volume, overall values (Median) [2] | Tumour surface, overall values (Mean) [3] | Tumour surface, overall values (Median) [3] | Tumour volume, overall values (Mean) [3] | Tumour surface, overall values (Mean) [4] | other results
Br.N[C@]1(C[n+]2ccccc2)C[C@H](C(=O)O)NC1=O.[Br-] (single isomer, unassigned; isomer 4) [isomer 4, 3S,5R-1-(3-Amino-5-carboxy-2-oxopyrrolidin-3-ylmethyl)pyridinium bromide hidrobromide] | 0 mm^2 | 0 mm^2 | 0 mm^3 | 0 mm^3 | 0 mm^2 | 0 mm^2 | 0 mm^3 | 0 mm^3 | 0.17 mm^2 | 0 mm^2 | 0.16 mm^3 | 0 mm^3 | 2.79 mm^2 | 0 mm^2 | 5.29 mm^3 | 0 mm^3 | 14.59 mm^2 | 9 mm^2 | 36.5 mm^3 | 34.52 mm^2 | Inhibition of the in vivo growth of the lung carcinoma ASB XIV, in words: inhibit the in vivo growth; Tumour volume, overall values (Mean) [4]: 118.19 mm^3; Tumour surface, overall values (Mean) [5]: 65.86 mm^2; Tumour surface, overall values (Median) [5]: 49 mm^2; Tumour volume, overall values (Mean) [5]: 297.83 mm^3; Tumour volume, overall values (Median) [5]: 171.5 mm^3; Tumour surface, overall values (Mean) [6]: 90.28 mm^2; Tumour surface, overall values (Median) [6]: 81 mm^2; Tumour volume, overall values (Mean) [6]: 451.55 mm^3; Tumour volume, overall values (Median) [6]: 364.5 mm^3; Tumour surface, overall values (Mean) [7]: 123.45 mm^2; Tumour surface, overall values (Median) [7]: 110 mm^2; Tumour volume, overall values (Mean) [7]: 700.66 mm^3; Tumour volume, overall values (Median) [7]: 550 mm^3; Differences in ASB XIV tumour growth rate vs. placebo, statistical significance p (Mann-Whitney U test): < 0.05
Br.N[C@@]1(C[n+]2ccccc2)C[C@@H](C(=O)O)NC1=O.[Br-] (single isomer, unassigned; isomer 1) [isomer 1, 3R,5S-1-(3-Amino-5-carboxy-2-oxopyrrolidin-3-ylmethyl)pyridinium bromide hidrobromide] | 0 mm^2 | 0 mm^2 | 0 mm^3 | 0 mm^3 | 0 mm^2 | 0 mm^2 | 0 mm^3 | 0 mm^3 | 0.32 mm^2 | 0 mm^2 | 0.45 mm^3 | 0 mm^3 | 3.45 mm^2 | 0 mm^2 | 5.34 mm^3 | 0 mm^3 | 19.65 mm^2 | 16 mm^2 | 53.37 mm^3 | 46.81 mm^2 | Tumour volume, overall values (Median) [3]: 32 mm^3; Tumour volume, overall values (Mean) [4]: 179.79 mm^3; Tumour surface, overall values (Mean) [5]: 92.52 mm^2; Tumour surface, overall values (Median) [5]: 72 mm^2; Tumour volume, overall values (Mean) [5]: 474.10 mm^3; Tumour volume, overall values (Median) [5]: 288 mm^3; Tumour surface, overall values (Mean) [6]: 125.16 mm^2; Tumour surface, overall values (Median) [6]: 110 mm^2; Tumour volume, overall values (Mean) [6]: 733.26 mm^3; Tumour volume, overall values (Median) [6]: 550 mm^3; Tumour surface, overall values (Mean) [7]: 165.65 mm^2; Tumour surface, overall values (Median) [7]: 154 mm^2; Tumour volume, overall values (Mean) [7]: 1114.37 mm^3; Tumour volume, overall values (Median) [7]: 864 mm^3
Br.N[C@@]1(C[n+]2ccccc2)C[C@H](C(=O)O)NC1=O.[Br-] (single isomer, unassigned; isomer 2) [isomer 2, 3R,5R-1-(3-Amino-5-carboxy-2-oxopyrrolidin-3-ylmethyl)pyridinium bromide hidrobromide] | 0 mm^2 | 0 mm^2 | 0 mm^3 | 0 mm^3 | 0 mm^2 | 0 mm^2 | 0 mm^3 | 0 mm^3 | 0.71 mm^2 | 0 mm^2 | 1 mm^3 | 0 mm^3 | 6.19 mm^2 | 0 mm^2 | 12.68 mm^3 | 0 mm^3 | 29.84 mm^2 | 25 mm^2 | 102.44 mm^3 | 63.55 mm^2 | Tumour volume, overall values (Median) [3]: 62.5 mm^3; Tumour surface, overall values (Median) [4]: 56 mm^2; Tumour volume, overall values (Mean) [4]: 292.39 mm^3; Tumour volume, overall values (Median) [4]: 196 mm^3; Tumour surface, overall values (Mean) [5]: 105.97 mm^2; Tumour surface, overall values (Median) [5]: 110 mm^2; Tumour volume, overall values (Mean) [5]: 603.66 mm^3; Tumour volume, overall values (Median) [5]: 550 mm^3; Tumour surface, overall values (Mean) [6]: 142.45 mm^2; Tumour surface, overall values (Median) [6]: 144 mm^2; Tumour volume, overall values (Mean) [6]: 913.90 mm^3; Tumour volume, overall values (Median) [6]: 864 mm^3; Tumour surface, overall values (Mean) [7]: 188.87 mm^2; Tumour surface, overall values (Median) [7]: 210 mm^2; Tumour volume, overall values (Mean) [7]: 1377.02 mm^3; Tumour volume, overall values (Median) [7]: 1436.5 mm^3
Br.N[C@]1(C[n+]2ccccc2)C[C@@H](C(=O)O)NC1=O.[Br-] (single isomer, unassigned; isomer 3) [isomer 3, 3S,5S-1-(3-Amino-5-carboxy-2-oxopyrrolidin-3-ylmethyl)pyridinium bromide hidrobromide] | 0 mm^2 | 0 mm^2 | 0 mm^3 | 0 mm^3 | 0 mm^2 | 0 mm^2 | 0 mm^3 | 0 mm^3 | 0.29 mm^2 | 0 mm^2 | 0.44 mm^3 | 0 mm^3 | 2.81 mm^2 | 0 mm^2 | 6.31 mm^3 | 0 mm^3 | 15.16 mm^2 | 9 mm^2 | 44.13 mm^3 | 33.16 mm^2 | Inhibition of the in vivo growth of the lung carcinoma ASB XIV, in words: inhibit the in vivo growth; Tumour volume, overall values (Median) [3]: 13.5 mm^3; Tumour surface, overall values (Median) [4]: 25 mm^2; Tumour volume, overall values (Mean) [4]: 116.65 mm^3; Tumour volume, overall values (Median) [4]: 62.5 mm^3; Tumour surface, overall values (Mean) [5]: 68.67 mm^2; Tumour surface, overall values (Median) [5]: 64 mm^2; Tumour volume, overall values (Mean) [5]: 337.18 mm^3; Tumour volume, overall values (Median) [5]: 256 mm^3; Tumour surface, overall values (Mean) [6]: 94.61 mm^2; Tumour surface, overall values (Median) [6]: 99 mm^2; Tumour volume, overall values (Mean) [6]: 529.37 mm^3; Tumour volume, overall values (Median) [6]: 445.5 mm^3; Tumour surface, overall values (Mean) [7]: 131.35 mm^2; Tumour surface, overall values (Median) [7]: 140 mm^2; Tumour volume, overall values (Mean) [7]: 848.87 mm^3; Tumour volume, overall values (Median) [7]: 700 mm^3; Differences in ASB XIV tumour growth rate vs. placebo, statistical significance p (Mann-Whitney U test): < 0.05

— patent US8835466B2, “Synthesis and uses of pyroglutamic acid derivatives” (Prodimed, S.A., priority 2006, dated 2014)
